In patent publication US10251892B2, “Bicyclic heterocycles as FGFR4 inhibitors” (Incyte Corporation, priority 2015, dated 2019):

Biological target: FGFR3 enzyme (Homo sapiens (Human), UniProt P22607)
Test: FGFR Enzymatic Assay (peptide phosphorylation, FRET), FGFR3
Format: biochemical
Details: IC50 ratio showing FGFR3 selectivity; pre-incubated for 4 hours
Method: The inhibitor potency of the exemplified compounds was measured in an enzyme assay that measures peptide phosphorylation using FRET measurements to detect product formation. Inhibitors were serially diluted in DMSO and a volume of 0.5 μL was transferred to the wells of a 384-well plate.
GraphPad prism3 was used to analyze the data.

Sequence of FGFR3 enzyme (P22607 23-806): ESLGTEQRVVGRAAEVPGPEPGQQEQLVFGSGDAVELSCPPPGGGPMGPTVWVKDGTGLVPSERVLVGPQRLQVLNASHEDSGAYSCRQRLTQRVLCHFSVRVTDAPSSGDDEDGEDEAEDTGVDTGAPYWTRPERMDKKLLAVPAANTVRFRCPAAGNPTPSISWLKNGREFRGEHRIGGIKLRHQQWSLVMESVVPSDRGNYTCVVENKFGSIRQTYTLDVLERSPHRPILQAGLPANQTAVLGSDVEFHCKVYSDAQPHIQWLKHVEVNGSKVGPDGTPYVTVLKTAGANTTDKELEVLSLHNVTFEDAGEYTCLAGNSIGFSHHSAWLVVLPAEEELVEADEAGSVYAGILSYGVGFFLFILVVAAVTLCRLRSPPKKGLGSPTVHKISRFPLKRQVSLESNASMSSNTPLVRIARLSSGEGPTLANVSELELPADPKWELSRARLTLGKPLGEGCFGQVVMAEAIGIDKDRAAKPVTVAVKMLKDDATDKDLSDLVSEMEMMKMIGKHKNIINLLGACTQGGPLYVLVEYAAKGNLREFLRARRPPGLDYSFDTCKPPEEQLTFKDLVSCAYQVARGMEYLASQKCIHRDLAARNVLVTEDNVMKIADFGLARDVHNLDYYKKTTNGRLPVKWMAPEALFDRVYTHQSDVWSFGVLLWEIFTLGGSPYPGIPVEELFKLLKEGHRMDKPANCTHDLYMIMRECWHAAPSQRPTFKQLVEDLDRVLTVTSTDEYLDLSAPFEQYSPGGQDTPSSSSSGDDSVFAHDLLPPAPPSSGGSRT

| Compound | FGFR1/FGFR3 | FGFR4/FGFR3 |
| --- | --- | --- |
| CNC(=O)c1ccc(CN2C(=O)N(c3c(F)c(OC)cc(OC)c3F)Cc3cnc(-c4cn(C)nc4C)cc32)cc1 [Example 62, 4-((3-(2,6-difluoro-3,5-dimethoxyphenyl)-7-(1,3-dimethyl-1H-pyrazol-4-yl)-2-oxo-3,4-dihydropyrido[4,3-d]pyrimidin-1(2H)-yl)methyl)-N-methylbenzamide] | >10 | >5 |
| COc1cc(OC)c(F)c(N2Cc3cnc(-c4cn(C)nc4C)cc3N(c3ccc4ccncc4c3)C2=O)c1F [Example 63, 3-(2,6-difluoro-3,5-dimethoxyphenyl)-7-(1,3-dimethyl-1H-pyrazol-4-yl)-1-(isoquinolin-7-yl)-3,4-dihydropyrido[4,3-d]pyrimidin-2(1H)-one] | >10 | >5 |
| CCc1cc(CN2C(=O)N(c3c(F)c(OC)cc(OC)c3F)Cc3cnc(-c4cn(C)nc4C)cc32)no1 [Example 64, 3-(2,6-difluoro-3,5-dimethoxyphenyl)-7-(1,3-dimethyl-1H-pyrazol-4-yl)-1-((5-ethylisoxazol-3-yl)methyl)-3,4-dihydropyrido[4,3-d]pyrimidin-2(1H)-one] | >10 | >10 |
| COc1cc(OC)c(F)c(N2Cc3cnc(-c4cn(C)nc4C)cc3N(Cc3ccncn3)C2=O)c1F [Example 65, 3-(2,6-difluoro-3,5-dimethoxyphenyl)-7-(1,3-dimethyl-1H-pyrazol-4-yl)-1-(pyrimidin-4-ylmethyl)-3,4-dihydropyrido[4,3-d]pyrimidin-2(1H)-one] | >5 | >10 |
| COc1cc(OC)c(F)c(N2Cc3cnc(-c4cn(C)nc4C)cc3N(c3ccc(F)c(C#N)c3)C2=O)c1F [Example 66, 5-(3-(2,6-difluoro-3,5-dimethoxyphenyl)-7-(1,3-dimethyl-1H-pyrazol-4-yl)-2-oxo-3,4-dihydropyrido[4,3-d]pyrimidin-1(2H)-yl)-2-fluorobenzonitrile] | >5 | >5 |
| CCc1nnc(CN2C(=O)N(c3c(F)c(OC)cc(OC)c3F)Cc3cnc(-c4cn(C)nc4C)cc32)o1 [Example 67, 3-(2,6-difluoro-3,5-dimethoxyphenyl)-7-(1,3-dimethyl-1H-pyrazol-4-yl)-1-((5-ethyl-1,3,4-oxadiazol-2-yl)methyl)-3,4-dihydropyrido[4,3-d]pyrimidin-2(1H)-one] | >5 | >10 |
| COc1cc(OC)c(F)c(N2Cc3cnc(-c4cn(C)nc4C)cc3N(Cc3ccnc(C)c3)C2=O)c1F [Example 68, 3-(2,6-difluoro-3,5-dimethoxyphenyl)-7-(1,3-dimethyl-1H-pyrazol-4-yl)-1-((2-methylpyridin-4-yl)methyl)-3,4-dihydropyrido[4,3-d]pyrimidin-2(1H)-one] | >5 | >5 |
| COc1cc(OC)c(F)c(N2Cc3cnc(-c4cn(C)nc4C)cc3N(Cc3ccncc3)C2=O)c1F [Example 69, 3-(2,6-difluoro-3,5-dimethoxyphenyl)-7-(1,3-dimethyl-1H-pyrazol-4-yl)-1-(pyridin-4-ylmethyl)-3,4-dihydropyrido[4,3-d]pyrimidin-2(1H)-one] | >5 | >5 |
| COc1cc(OC)c(F)c(N2Cc3cnc(-c4cn(C)nc4C)cc3N(c3cnccn3)C2=O)c1F [Example 70, 3-(2,6-difluoro-3,5-dimethoxyphenyl)-7-(1,3-dimethyl-1H-pyrazol-4-yl)-1-(pyrazin-2-yl)-3,4-dihydropyrido[4,3-d]pyrimidin-2(1H)-one] | >5 | >5 |
| COc1cc(OC)c(F)c(N2Cc3cnc(-c4cn(C)nc4C)cc3N(C3CCN(S(C)(=O)=O)CC3)C2=O)c1F [Example 71, 3-(2,6-difluoro-3,5-dimethoxyphenyl)-7-(1,3-dimethyl-1H-pyrazol-4-yl)-1-(1-(methylsulfonyl)piperidin-4-yl)-3,4-dihydropyrido[4,3-d]pyrimidin-2(1H)-one] | >5 | >3 |
| COc1cc(OC)c(F)c(N2Cc3cnc(-c4cn(C)nc4C)cc3N(Cc3cnn(C)c3)C2=O)c1F [Example 72, 3-(2,6-difluoro-3,5-dimethoxyphenyl)-7-(1,3-dimethyl-1H-pyrazol-4-yl)-1-((1-methyl-1H-pyrazol-4-yl)methyl)-3,4-dihydropyrido[4,3-d]pyrimidin-2(1H)-one] | >5 | >10 |
| COc1cc(OC)c(F)c(N2Cc3cnc(-c4cn(C)nc4C)cc3N(Cc3ccc(F)c(F)c3)C2=O)c1F [Example 73, 3-(2,6-difluoro-3,5-dimethoxyphenyl)-1-(3,4-difluorobenzyl)-7-(1,3-dimethyl-1H-pyrazol-4-yl)-3,4-dihydropyrido[4,3-d]pyrimidin-2(1H)-one] | >5 | >10 |
| COc1cc(OC)c(F)c(N2Cc3cnc(-c4cn(C)nc4C)cc3N(Cc3ccc(C#N)nc3)C2=O)c1F [Example 74, 5-((3-(2,6-difluoro-3,5-dimethoxyphenyl)-7-(1,3-dimethyl-1H-pyrazol-4-yl)-2-oxo-3,4-dihydropyrido[4,3-d]pyrimidin-1(2H)-yl)methyl)picolinonitrile] | >5 | >5 |
| COc1cc(OC)c(F)c(N2Cc3cnc(-c4cn(C)nc4C)cc3N(c3ccc4nc(C)oc4c3)C2=O)c1F [Example 75, 3-(2,6-difluoro-3,5-dimethoxyphenyl)-7-(1,3-dimethyl-1H-pyrazol-4-yl)-1-(2-methylbenzo[d]oxazol-6-yl)-3,4-dihydropyrido[4,3-d]pyrimidin-2(1H)-one] | >5 | >3 |
| COc1cc(OC)c(F)c(N2Cc3cnc(-c4cn(C)nc4C)cc3N(c3ccc(-n4cccn4)cc3)C2=O)c1F [Example 77, 1-(4-(1H-pyrazol-1-yl)phenyl)-3-(2,6-difluoro-3,5-dimethoxyphenyl)-7-(1,3-dimethyl-1H-pyrazol-4-yl)-3,4-dihydropyrido[4,3-d]pyrimidin-2(1H)-one] | >5 | >10 |
| COc1cc(OC)c(F)c(N2Cc3cnc(-c4cn(C)nc4C)cc3N(c3cc(F)cc(C#N)c3)C2=O)c1F [Example 78, 3-(3-(2,6-difluoro-3,5-dimethoxyphenyl)-7-(1,3-dimethyl-1H-pyrazol-4-yl)-2-oxo-3,4-dihydropyrido[4,3-d]pyrimidin-1(2H)-yl)-5-fluorobenzonitrile] | >5 | >3 |
| COc1cc(OC)c(F)c(N2Cc3cnc(-c4cn(C)nc4C)cc3N(c3ccc(C#N)cn3)C2=O)c1F [Example 79, 6-(3-(2,6-difluoro-3,5-dimethoxyphenyl)-7-(1,3-dimethyl-1H-pyrazol-4-yl)-2-oxo-3,4-dihydropyrido[4,3-d]pyrimidin-1(2H)-yl)nicotinonitrile] | >5 | >3 |
| COc1cc(N2C(=O)N(c3c(F)c(OC)cc(OC)c3F)Cc3cnc(-c4cn(C)nc4C)cc32)ccc1C#N [Example 81, 4-(3-(2,6-difluoro-3,5-dimethoxyphenyl)-7-(1,3-dimethyl-1H-pyrazol-4-yl)-2-oxo-3,4-dihydropyrido[4,3-d]pyrimidin-1(2H)-yl)-2-methoxybenzonitrile] | >5 | >10 |
